In patent US6664231B1, “Anti-fungal peptides” (priority 1993, dated 2003):

Columns and labels:
[1] = system: C. albicans (SLU-1 strain); assay: Survival of mice systemically infected with Candida albicans; assay type: in vivo, mouse
Description: Groups of 15 male DBA/2J mice at age 6-8 weeks (Jackson Laboratory, Bar Harbor, Me.) were inoculated with 1.24×10^5 C. albicans (SLU-1 strain as described in Example 2) by intravenous injection into the tail vein. Cells were prepared for animal injection as follows. A single colony was selected and used to inoculate a 5 mL tube of Sabouraud dextrose broth. Incubation was at 30° C. with shaking to allow aeration for a period of 15-18 hours. Four mL of the overnight culture were added to 100 mL of fresh Sabouraud dextrose broth (1:25 dilution) and incubated for 4 hours. The 100 mL culture was pelleted at 1,500×g for 5 minutes. Cells were washed twice by adding 20 mL D-PBS, vortexing and re-centrifuging. Cells were collected in one tube and a sample is diluted 1:10 to be measured by OD570 (1 OD unit=3×10^7 CFU/mL). The cells were diluted to the desired dose in D-PBS and kept at 4° C. until used. Doses were confirmed by performing serial ten-fold dilutions and plating 50 μl per dilution on Sabouraud dextrose agar. Colonies were counted the following day after overnight incubation at 37° C. A […] culture yielded approximately 1×10^9 CFU/mL.
Immediately after fungal challenge, the mice were intravenously injected via the tail vein with a 0.1 mL volume of 10 mg/kg XMP.36, 5 mg/kg XMP.97, 10 mg/kg XMP.102, 1 mg/kg amphotericin B (Sigma, St. Louis, Mo.), or phosphate buffered saline (PBS) as a control. Treatment with the same amounts of peptides, amphotericin B or PBS was repeated at Day 2 and Day 4 (except that the second dose of XMP.36 was given at a dose of 5 mg/kg). Mice were monitored twice daily for mortality until termination of the study at Day 28. […] In FIG. 4, the symbol “X” represents survival after treatment with amphotericin B; open squares, treatment with XMP.97; open circles, treatment with XMP.36; open diamonds, treatment with XMP.102; and open triangles, treatment with buffer. Statistical significance was evaluated using the Lifetest Survival Curve analysis. [Lawless, Statistical Models and Methods for Lifetime Data, John Wiley & Sons, New York (1982).] The duration and almost linear decline in survival is analogous to human opportunistic candidiasis.
In additional 3-dose studies, groups of 15 mice were injected with a fungal challenge of 0.5×10^5 Candida cells, prepared for injection as described above, followed by treatment at Day 0, Day 2 and Day 5 with a 0.1 mL volume of 10 mg/kg XMP.127, 5 mg/kg XMP.13, 5 mg/kg XMP.37, 1 mg/kg amphotericin B, or PBS as a control. […] In FIG. 5, the symbol “X” represents survival after treatment with amphotericin B; open circles, treatment with XMP.127; filled triangles, treatment with buffer; open squares, treatment with XMP.37; open triangles, treatment with XMP.13.
Further studies to determine the effectiveness of anti-fungal peptides were performed at an increased dosing regimen (6 doses rather than 3 doses as described above). Groups of 9 week-old male DBA/2J mice were inoculated with concentrations of 2.7×10^5 Candida cells (prepared as described above) by intravenous injection in the tail vein. Immediately after fungal challenge, the mice were treated with a 0.1 mL volume of 10 mg/kg XMP.284, 1 mg/kg amphotericin B or PBS as a control at Day 0, Day 2, Day 4, Day 7, Day 9 and Day 11. All amphotericin B-treated animals were protected.
Additional 6-dose experiments were conducted as described above, using inocula of 0.5-3.0×10^5 Candida cells and using 0.01, 0.05, 0.1, 0.5, 1.0 or 5.0 mg/kg doses of peptide.

[2] = system: C. albicans (CA-1, Strain SLU-1); assay: Radial diffusion assay; assay type: cell-based, Candida albicans; conditions: pmoles of peptide added to well to achieve a 30 mm^2 zone, PROBIT analysis, crude or purified (P′) peptide
Procedure, shortened: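 Peptides, serially diluted 2-fold in D-PBS (top ~1 mg/mL), diffused 3 h at 37° C into pH 7.4 phosphate-buffered agarose seeded with 1×10^6 CFU/mL yeast, before overnight growth under a 6% Sabouraud overlayer. Net inhibition zones measured after Coomassie staining; PROBIT fit of log pmol vs area gave pmol for 30 mm^2.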

[3] = 0.5×10^5 Candida cells, doses Day 0, 2, 5, 10 mg/kg XMP.127, 5 mg/kg XMP.13, 5 mg/kg XMP.37, 1 mg/kg amphotericin B, FIG. 5
[4] = 2.7×10^5 Candida cells, 10 mg/kg, 6 doses (Day 0, 2, 4, 7, 9, 11), FIG. 6

Compound | mice survived until Day 28 [1, 3] [%] | mice survived until Day 28 ([1]; 1.24×10^5 C. albicans i.v., 3 doses i.v. (Day 0, 2, 4), 10 mg/kg XMP.36, 5 mg/kg XMP.97, 10 mg/kg XMP.102, 1 mg/kg amphotericin B, FIG. 4) [%] | protection of animals (6-dose study) ([1]; 2.7×10^5 Candida cells, 1 mg/kg, 6 doses) | C. albicans pmol/30 mm^2 zone [2] | C. albicans pmol/30 mm^2 zone ([2]; listed as XMP.13P′) [pmol/30 mm^2 zone] | survival at Day 6 [1, 4] [%] | survival at Day 24 [1, 4] [%] | C. albicans pmol/30 mm^2 zone ([2]; listed as XMP.284P′) [pmol/30 mm^2 zone]
C[C@@H]1[C@H](O)[C@@H](C)/C=C/C=C/C=C/C=C/C=C/C=C/C=C/[C@H](O[C@@H]2O[C@H](C)[C@@H](O)[C@H](N)[C@@H]2O)C[C@@H]2O[C@](O)(C[C@@H](O)C[C@@H](O)[C@H](O)CC[C@@H](O)C[C@@H](O)CC(=O)O[C@H]1C)C[C@H](O)[C@H]2C(=O)O [Amphotericin B, amphotericin B, reference compound] | 100 | 100 | protected | – | – | – | – | –
H-KSKVGWAIQLFHKK-NH2 [XMP.37] | 33 | – | – | 253 pmol/30 mm^2 zone | – | – | – | –
H-KSKVGWLIQLFHKK-NH2 [XMP.13] | 20 | – | – | 541 pmol/30 mm^2 zone | 222 | – | – | –
H-SKVKWLIQLFHKK-NH2 [XMP.284] | – | – | – | 1,460 pmol/30 mm^2 zone | – | 87 | 33 | 373
